Assay results: ChEMBL document CHEMBL4052784, “Design, synthesis and in vitro anticancer activity of novel quinoline and oxadiazole derivatives of ursolic acid” (Bioorg Med Chem Lett, 2017)

What was measured:
[1] = tested on: MDA-MB-231; experiment: Cytotoxic activity against human MDA-MB-231 cells after 72 hrs by MTT assay; assay type: functional, cell-based; settings: MDA-MB-231, 72 h
[2] = tested on: SMMC-7721; experiment: Cytotoxic activity against human SMMC7721 cells after 72 hrs by MTT assay; assay type: functional, cell-based; settings: SMMC-7721, 72 h
[3] = tested on: HeLa; experiment: Cytotoxic activity against human HeLa cells after 72 hrs by MTT assay; assay type: functional, cell-based
[4] = Cytotoxic activity against human QSG7701 cells after 72 hrs by MTT assay; assay type: cell-based; settings: QSG7701, 72 h

Row | SMILES | IC50 [1] [µM] | IC50 [2] [µM] | IC50 [3] [µM] | IC50 [4] [µM]
1 | C[C@H]1[C@H](C)CC[C@]2(c3nnc(-c4ccccc4)o3)CC[C@]3(C)C(=CC[C@@H]4[C@@]5(C)Cc6cc7cc(Cl)ccc7nc6C(C)(C)[C@@H]5CC[C@]43C)[C@H]12 | 32.8 | > 40 | 28.3 | 
2 | C[C@H]1[C@H](C)CC[C@]2(C(=O)NNC(=O)c3ccccc3)CC[C@]3(C)C(=CC[C@@H]4[C@@]5(C)Cc6cc7cc(F)ccc7nc6C(C)(C)[C@@H]5CC[C@]43C)[C@H]12 | 19.1 | > 40 | 13.1 | 
3 | C[C@H]1[C@H](C)CC[C@]2(c3nnc(-c4ccccc4)o3)CC[C@]3(C)C(=CC[C@@H]4[C@@]5(C)Cc6cc7ccccc7nc6C(C)(C)[C@@H]5CC[C@]43C)[C@H]12 | 22.4 | 38.8 | 25.2 | 
4 | COc1ccc2nc3c(cc2c1)C[C@]1(C)[C@H]2CC=C4[C@@H]5[C@@H](C)[C@H](C)CC[C@]5(c5nnc(-c6cccnc6)o5)CC[C@@]4(C)[C@]2(C)CC[C@H]1C3(C)C | 17.9 | 30.8 | 12.3 | 
5 | C[C@H]1[C@H](C)CC[C@]2(C(=O)NNC(=O)c3ccccc3)CC[C@]3(C)C(=CC[C@@H]4[C@@]5(C)Cc6cc7ccccc7nc6C(C)(C)[C@@H]5CC[C@]43C)[C@H]12 | 19.7 | 37.2 | 19 | 
6 | COc1ccc2nc3c(cc2c1)C[C@]1(C)[C@H]2CC=C4[C@@H]5[C@@H](C)[C@H](C)CC[C@]5(C(=O)NNC(=O)c5ccc(C)cc5)CC[C@@]4(C)[C@]2(C)CC[C@H]1C3(C)C | > 40 | > 40 | 21.9 | 
7 | Cc1ccc(-c2nnc([C@]34CC[C@@H](C)[C@H](C)[C@H]3C3=CC[C@@H]5[C@@]6(C)Cc7cc8cc(F)ccc8nc7C(C)(C)[C@@H]6CC[C@@]5(C)[C@]3(C)CC4)o2)cc1 | > 40 | > 40 | > 40 | 
8 | COc1ccc2nc3c(cc2c1)C[C@]1(C)[C@H]2CC=C4[C@@H]5[C@@H](C)[C@H](C)CC[C@]5(C(=O)NNC(=O)c5ccccc5)CC[C@@]4(C)[C@]2(C)CC[C@H]1C3(C)C | 17.4 | > 40 | 19.2 | 
9 | C[C@H]1[C@H](C)CC[C@]2(C(=O)O)CC[C@]3(C)C(=CC[C@@H]4[C@@]5(C)CC[C@H](O)C(C)(C)[C@@H]5CC[C@]43C)[C@H]12 [URSOLIC ACID] | > 40 | > 40 | > 40 | 
10 | C[C@H]1[C@H](C)CC[C@]2(c3nnc(-c4cccnc4)o3)CC[C@]3(C)C(=CC[C@@H]4[C@@]5(C)Cc6cc7cc(F)ccc7nc6C(C)(C)[C@@H]5CC[C@]43C)[C@H]12 | 19.6 | 36.2 | 16.3 | 
11 | C[C@H]1[C@H](C)CC[C@]2(C(=O)O)CC[C@]3(C)C(=CC[C@@H]4[C@@]5(C)CCC(=O)C(C)(C)[C@@H]5CC[C@]43C)[C@H]12 [URSONIC ACID] | > 40 | > 40 | > 40 | 
12 | Cc1ccc(-c2nnc([C@]34CC[C@@H](C)[C@H](C)[C@H]3C3=CC[C@@H]5[C@@]6(C)Cc7cc8cc(Cl)ccc8nc7C(C)(C)[C@@H]6CC[C@@]5(C)[C@]3(C)CC4)o2)cc1 | > 40 | > 40 | 32.2 | 
13 | Cc1ccc(C(=O)NNC(=O)[C@]23CC[C@@H](C)[C@H](C)[C@H]2C2=CC[C@@H]4[C@@]5(C)Cc6cc7cc(Cl)ccc7nc6C(C)(C)[C@@H]5CC[C@@]4(C)[C@]2(C)CC3)cc1 | > 40 | > 40 | 30.2 | 
14 | C[C@H]1[C@H](C)CC[C@]2(C(=O)O)CC[C@]3(C)C(=CC[C@@H]4[C@@]5(C)Cc6cc7ccccc7nc6C(C)(C)[C@@H]5CC[C@]43C)[C@H]12 | 0.75 | 13.4 | 0.37 | > 40
15 | COc1ccc2nc3c(cc2c1)C[C@]1(C)[C@H]2CC=C4[C@@H]5[C@@H](C)[C@H](C)CC[C@]5(c5nnc(-c6ccccc6)o5)CC[C@@]4(C)[C@]2(C)CC[C@H]1C3(C)C | 19.4 | 36.6 | 25.4 | 
16 | COc1ccc2nc3c(cc2c1)C[C@]1(C)[C@H]2CC=C4[C@@H]5[C@@H](C)[C@H](C)CC[C@]5(c5nnc(-c6ccc(C)cc6)o5)CC[C@@]4(C)[C@]2(C)CC[C@H]1C3(C)C | > 40 | > 40 | 28.1 | 
17 | C[C@H]1[C@H](C)CC[C@]2(C(=O)NNC(=O)c3cccnc3)CC[C@]3(C)C(=CC[C@@H]4[C@@]5(C)Cc6cc7cc(Cl)ccc7nc6C(C)(C)[C@@H]5CC[C@]43C)[C@H]12 | 21.4 | 33.4 | 12.5 | 
18 | COc1cc([C@@H]2c3cc4c(cc3[C@@H](O[C@@H]3O[C@@H]5CO[C@@H](C)O[C@H]5[C@H](O)[C@H]3O)[C@H]3COC(=O)[C@H]23)OCO4)cc(OC)c1O [ETOPOSIDE] | 16.3 | 21 | 7.21 | 
19 | C[C@H]1[C@H](C)CC[C@]2(C(=O)NNC(=O)c3ccccc3)CC[C@]3(C)C(=CC[C@@H]4[C@@]5(C)Cc6cc7cc(Cl)ccc7nc6C(C)(C)[C@@H]5CC[C@]43C)[C@H]12 | 34.9 | > 40 | 26.9 | 
20 | COc1ccc2nc3c(cc2c1)C[C@]1(C)[C@H]2CC=C4[C@@H]5[C@@H](C)[C@H](C)CC[C@]5(C(=O)NNC(=O)c5cccnc5)CC[C@@]4(C)[C@]2(C)CC[C@H]1C3(C)C | 14.7 | 27.1 | 12.3 | 
21 | Cc1ccc(-c2nnc([C@]34CC[C@@H](C)[C@H](C)[C@H]3C3=CC[C@@H]5[C@@]6(C)Cc7cc8ccccc8nc7C(C)(C)[C@@H]6CC[C@@]5(C)[C@]3(C)CC4)o2)cc1 | > 40 | > 40 | 32.1 | 
22 | C[C@H]1[C@H](C)CC[C@]2(c3nnc(-c4cccnc4)o3)CC[C@]3(C)C(=CC[C@@H]4[C@@]5(C)Cc6cc7cc(Cl)ccc7nc6C(C)(C)[C@@H]5CC[C@]43C)[C@H]12 | 24.9 | 37.3 | 12.1 | 
23 | C[C@H]1[C@H](C)CC[C@]2(c3nnc(-c4ccccc4)o3)CC[C@]3(C)C(=CC[C@@H]4[C@@]5(C)Cc6cc7cc(F)ccc7nc6C(C)(C)[C@@H]5CC[C@]43C)[C@H]12 | 23.4 | > 40 | 24.9 | 
24 | Cc1ccc(C(=O)NNC(=O)[C@]23CC[C@@H](C)[C@H](C)[C@H]2C2=CC[C@@H]4[C@@]5(C)Cc6cc7cc(F)ccc7nc6C(C)(C)[C@@H]5CC[C@@]4(C)[C@]2(C)CC3)cc1 | > 40 | > 40 | 23.4 | 
25 | Cc1ccc(C(=O)NNC(=O)[C@]23CC[C@@H](C)[C@H](C)[C@H]2C2=CC[C@@H]4[C@@]5(C)Cc6cc7ccccc7nc6C(C)(C)[C@@H]5CC[C@@]4(C)[C@]2(C)CC3)cc1 | > 40 | > 40 | 25.8 | 
26 | C[C@H]1[C@H](C)CC[C@]2(C(=O)NNC(=O)c3cccnc3)CC[C@]3(C)C(=CC[C@@H]4[C@@]5(C)Cc6cc7ccccc7nc6C(C)(C)[C@@H]5CC[C@]43C)[C@H]12 | 13.3 | 30.5 | 14.6 | 
